Read-outs that look alike come from different tables or passages of the source. One block for each compound: values may come before it.
Columns and labels:
U87MG = assay: Cellular IC50 in U87MG tumor cell line (CellTiter-Glo); type: cell-based; conditions: U87MG cells, 72 h incubation
Protocol: (§1) The cellular inhibition was determined in three assays: U87MG, A549 and MC38. Cells were recovered and cultured in appropriate medium supplemented with 10% fetal bovine serum and 100 U/mL penicillin G sodium, and maintained in cell incubators (37° C., 5% CO2). Before testing, cells in culture dishes were rinsed with Phosphate Buffered Solution, detached with Trypsin. Dilute and adjust the cell number with the culture medium, add the cell suspension to the 96 well cell plate. Cells were maintained in incubators overnight. In T0 control plate, cells were added with 100 μL CellTiter-Glo reagent, balance at room temperature for 10 minutes, and read the chemiluminescence value with envision.
(§2) In the testing plate, compounds were dissolved with corresponding solvent and diluted gradiently. Diluted compound solution was added to a 96 well plate with cells. After incubation of 72 h, cells were added with 100 μL CellTiter-Glo reagent, balanced at room temperature for 10 minutes, and read the chemiluminescence value with envision. IC50 was calculated using the GraphPad Prism software package (Prism 6 for Windows, Version 6.0, GraphPad Software Inc., San Diego, CA).

A549 = assay: Cellular IC50 in A549 tumor cell line (CellTiter-Glo); type: cell-based; conditions: A549 cells, 72 h incubation
Protocol: as §1, §2

MC38 = assay: Cellular IC50 in MC38 tumor cell line (CellTiter-Glo); type: cell-based; conditions: 72 h incubation
Protocol: as §1, §2

[1] = male, CD-1, mouse, in vivo
Protocol: (§3) Pharmacokinetic parameters were determined in male CD-1 mice (Shanghai Jihui Laboratory Animal Care Co., Ltd., 6-8 weeks old). Animals were maintained under a 12 hr light/dark cycle. Animals had free access to food and water during the study.
(§4) For intravenous, compounds were formulated as a solution (in 5% DMSO+10% Solutol HS15+85% (20% HP-β-CD in water)) in 5 mL/kg dosing volume and administered via tail vein. For subcutaneous, compounds were formulated as a solution (in 5% DMSO+10% Solutol HS15+85% (20% HP-β-CD in water)) in 10 mL/kg dosing volume or (in 0.5% MC+1% Pluronic F68 in water) in 50 μL/mouse dosing volume and administered via subcutaneous puncture.
(§5) Semi-serial blood samples (about 110 μL) were taken from animal at 0.083, 0.25, 0.5, 1, 2, 4, 8 and 24 hr for IV group and 0.5, 2, 4, 8, 24, 48 and 96 hr for SC group. Samples were held on ice for no longer than 15 minutes before centrifugation (2000 g, 5 min, 4° C.) within 15 minutes post sampling. Plasma was snap frozen in dry ice and then transferred into −70° C. freezer for long term storage until LC-MS/MS analysis.
(§6) Tissue collection for SC group at 0.5, 2, 4, 8, 24, 48 and 96 hr. After animals were anesthetized and exsanguinated, tissue samples (including muscle and skin) were collected and weighted, and then snap frozen in liquid nitrogen and further stored at −70° C. for long term storage until LC-MS/MS analysis. Tissue samples were homogenized under freezing conditions.
(§7) PK parameters were generated from LC-MS/MS data using Phoenix WinNonlin 8.2 software.

physchem = conditions: buffer, pH 7.4
Protocol: (§8) Test compounds spiking solution: 1 mM test compounds spiking solution A: Add 10 μL of 10 mM test compounds stock solution to 90 μL DMSO. • 2. Add 396 μL of buffer into the tubes designated for different time points. Pre-warm the samples at 37° C. for 10 min. • 3. Add 4 μL of spiking solution A into the wells designated as 0 min (or 15, 45, 90, 120 min) containing 396 μL of buffer, then start timing count down. • 4. At each time point, add 1200 μL ACN containing IS into the tubes. • 5. Samples are centrifuged at 10,000 rpm for 5 min, then 100 μL of supernatant are ready for LC-MS/MS analysis.

[2] = Chemical stability in PBS (pH 7.4); conditions: PBS buffer
Protocol: as §8

[3] = buffer
Protocol: as §8

in vivo = conditions: male, CD-1, mouse, sc, 5 mg/kg
Protocol: as §3, §4, §5, §6, §7

[4] = Pharmacokinetics in male CD-1 mice (plasma and tissue, LC-MS/MS); conditions: CD-1, mouse
Protocol: as §3, §4, §5, §6, §7

[5] = Mus musculus, MC-38, MC38 cells

SMILES: CCc1c2c(nc3ccc(O)cc13)-c1cc3c(c(=O)n1C2)COC(=O)[C@]3(O)CC [Compound 1-1, SN-38, reference compound]
IC50 (U87MG): 13.6 nM
IC50 (A549): 99.5 nM
IC50 (MC38; MC38 cells): 21.2 nM

SMILES: CCc1c2c(nc3ccc(OC(=O)CCCc4ccc(I)cc4)cc13)-c1cc3c(c(=O)n1C2)COC(=O)[C@]3(O)CC [Compound 1]
Tissue/Plasma ratio ([1]; 3 mg/kg): 171.8
T½ ([1]; 3 mg/kg): 10.3 h
half-life at 10 µM (physchem): 19.7 h

SMILES: CCc1c2c(nc3ccc(OC(=O)C(C)CCc4ccc(I)cc4)cc13)-c1cc3c(c(=O)n1C2)COC(=O)[C@]3(O)CC (stereo partly shown) [Compound 2]
half-life at 10 µM (physchem): 23.1 h

SMILES: CCc1c2c(nc3ccc(OC(=O)NCCc4ccc(I)cc4)cc13)-c1cc3c(c(=O)n1C2)COC(=O)[C@]3(O)CC [Compound 3, (S)-4,11-diethyl-4-hydroxy-3,14-dioxo-3,4,12,14-tetrahydro-1H-pyrano [3′,4′:6,7]indolizino[1,2-b]quinolin-9-yl(4-iodophenethyl)carbamate]
half-life at 10 µM [2]: 0.85 h

SMILES: CCc1c2c(nc3ccc(OC(=O)N(C)CCc4ccc(I)cc4)cc13)-c1cc3c(c(=O)n1C2)COC(=O)[C@]3(O)CC [Compound 4, (S)-4,11-diethyl-4-hydroxy-3,14-dioxo-3,4,12,14-tetrahydro-1H-pyrano[3′,4′:6,7]indolizino[1,2-b]quinolin-9-yl(4-iodophenethyl)(methyl)carbamate]
half-life at 10 µM [2]: 3.58 h

SMILES: CCc1c2c(nc3ccc(OC(=O)[C@@H](C)c4ccc(CC(C)C)cc4)cc13)-c1cc3c(c(=O)n1C2)COC(=O)[C@]3(O)CC [Compound 8, (S)-4,11-diethyl-4-hydroxy-3,14-dioxo-3,4,12,14-tetrahydro-1H-pyrano [3′,4′:6,7]indolizino[1,2-b]quinolin-9-yl(S)-2-(4-isobutylphenyl)propanoate]
IC50 (U87MG; Homo sapiens, U-87 MG): 13.4 nM
IC50 (A549; Homo sapiens): 208 nM
IC50 (MC38; [5]): 22.7 nM
Stability (PBS, pH 7.4) T½ (min) [3]: ∞
T½ ([1]; sc, 5 mg/kg): >96 h
AUC(0-t) (in vivo): 11800 µg·h/mL
half-life (in vivo): 44.1 h

IC50 (MC38; [5]): > 10000 nM
SMILES: CC(C)Cc1ccc([C@H](C)C(=O)O)cc1 [Compound 8-1]

IC50 (U87MG; Homo sapiens, U-87 MG): 6.89 nM
IC50 (A549; Homo sapiens): 9.36 nM
IC50 (MC38; [5]): 16.3 nM
SMILES: CC(C)C[C@H](NC(=O)[C@H](Cc1ccccc1)NC(=O)c1cnccn1)B(O)O [Compound 9-7, Valcade, reference compound]

IC50 (U87MG; Homo sapiens, U-87 MG): 7.27 nM
IC50 (A549; Homo sapiens): 10.7 nM
IC50 (MC38; [5]): 15.9 nM
half-life ([4]; in vivo, sc, 1 mg/kg): 93.2 h
AUC(0-t) ([4]; plasma, sc, 1 mg/kg): 0.165 µg·h/mL
Kp ([4]; tissue (muscle or skin, not specified) / plasma, subcutaneous, 1 mg/kg): 365
AUC(0-t) ([4]; tissue (muscle or skin, not specified), sc, 1 mg/kg): 60.3 µg·h/mL
SMILES: CC(C)Cc1ccc([C@H](C)C(=O)NCCCC[N+]23CC(=O)O[B-]2([C@H](CC(C)C)NC(=O)[C@H](Cc2ccccc2)NC(=O)c2cnccn2)OC(=O)C3)cc1 (stereo partly drawn) [Compound 16, N-((S)-1-(((R)-1-(6-(4-((S)-2-(4-isobutylphenyl)propanamido)butyl)-4,8-dioxo-1,3,6,2-dioxazaborocan-2-yl)-3-methylbutyl)amino)-1-oxo-3-phenylpropan-2-yl)pyrazine-2-carboxamide]

half-life at 10 µM [2]: 8.4 h
AUC(0-t) ([4]; tissue (muscle or skin, not specified which), sc, 10 mg/kg): 37.6 µg·h/mL
half-life ([4]; tissue (muscle or skin, not specified which), subcutaneous, 10 mg/kg): 11.3 h
SMILES: O=C(CCCc1ccc(I)cc1)OCn1cc(F)c(=O)[nH]c1=O [Compound 28, (5-fluoro-2,4-dioxo-3,4-dihydropyrimidin-1(2H)-yl)methyl 4-(4-iodophenyl) butanoate]

SMILES: CC(=O)O[C@@]12CO[C@@H]1C[C@H](O)[C@@]1(C)C(=O)[C@H](O)C3=C(C)[C@@H](OC(=O)[C@H](OC(=O)CCCc4ccc(I)cc4)[C@@H](NC(=O)OC(C)(C)C)c4ccccc4)C[C@@](O)([C@@H](OC(=O)c4ccccc4)[C@H]21)C3(C)C [Compound 30, (2aR,4S,4aS,6R,9S,11 S,12S,12aR,12bS)-12b-acetoxy-9-(((2R,3S)-3-((tert-butoxycarbonyl)amino)-2-((4-(4-iodophenyl)butanoyl)oxy)-3-phenylpropanoyl)oxy)-4,6,11-trihydroxy-4a,8,13,13-tetramethyl-5-oxo-2a,3,4,4a,5,6,9,10,11,12,12a,12b-dodecahydro-1H-7,11-methanocyclodeca[3,4]benzo[1,2-b]oxet-12-yl benzoate]
half-life (physchem): 13.4 h

Reference: US20250082657A1, “CONJUGATES OF CHEMOTHERAPY AGENTS AND TISSUE-BINDING SMALL MOLECULES, COMPOSITIONS AND METHODS THEREOF” (CANWELL BIOTECH LIMITED, priority 2022, published 2025)
